Test results as given in patent publication US20250049831A1, “ANTIVIRAL USE OF BISE[…], AND BISEPOXYLIGNAN COMPOSITION AND PREPARATION OF BISE[…]” (priority 2021, published 2025).
Read-outs that look alike come from different tables or passages of the source.

What was measured:
[1] = tested on: influenza virus; assay: Effect of drug on virus-induced CPE (MTT, antiviral effective rate), influenza virus in Vero cells; type: cell-based
[2] = tested on: Vero cells; assay: Drug cytotoxicity assay (MTT) on Vero cells; type: cell-based, African green monkey; conditions: 72 h, Probit regression
Source text: Vero cells were subcultured for 1-2 d to make them into flakes, and trypsinized in the presence of clear boundaries, strong three-dimensional sense and strong refractive power, until needle-like holes appeared on the cell surfaces; after the trypsinization solution was absorbed completely, a few milliliters of culture medium were taken to blow away the cells; the cells were counted, diluted to about 5×10^7/L with a culture medium (DMEM containing 10% fetal bovine serum), and then inoculated in a 96-well culture plate; and the cells grew into a monolayer.
Cytotoxicity test: the drugs were diluted at the concentrations shown in Table 3-1 for cytotoxicity assay.

[3] = tested on: parainfluenza virus; assay: Effect of drug on virus-induced CPE (MTT, antiviral effective rate), parainfluenza virus in Vero cells; type: cell-based
[4] = tested on: COVID-19 virus; assay: In-vitro antiviral CPE test in Vero E6 cells, COVID-19 virus; type: cell-based; conditions: Vero E6 cells, 100 TCID50, CPE after 3-4 days; unit not given (drug concentrations 250-15.62 μg/mL); in µg/mL
[5] = tested on: IL-2; assay: Serum IL-2 in mice infected with influenza virus; type: in vivo, ICR mice; conditions: Day 5 after influenza virus infection, gavage once a day, x ± s
Method: (§1) On the Day 5 after influenza virus infection, that is, Day 6 after administration, after the mice were fasted with solids for 8 h and weighed, venous blood was collected from the plexus ophthalmicus, and blood from mice in each group was preserved, subjected to serum separation, and stored in a refrigerator for later use. According to the instructions of a test kit, various detection and analysis were carried out, and IL-2 and TNF-α concentrations were calculated based on the standard detection and standard curve plotting.

[6] = tested on: IL-1β; assay: RT-qPCR of IL-1β in lung homogenate of mice infected with COVID-19 Delta virus; conditions: mRNA RT-qPCR, NC = 1.00
[7] = tested on: MCP-1; assay: RT-qPCR of MCP-1 in lung homogenate of mice infected with COVID-19 Delta virus; conditions: mRNA RT-qPCR, NC = 1.00
[8] = tested on: TNF-α; assay: Serum TNF-α in mice infected with influenza virus; type: in vivo, ICR mice; conditions: Day 5 after influenza virus infection, gavage once a day, x ± s
Method: as §1

[9] = tested on: influenza virus; type: in vivo, Kunming mice; conditions: for Hemagglutination titer inhibition rate (%): Day 5; for Hemagglutination titer: lung suspension
[10] = tested on: parainfluenza virus; assay: Action links (Groups I-IV: prevention, treatment, direct inactivation), protection of cells against parainfluenza virus; type: cell-based; conditions: for Protection rate (ER %), Group IV: drug and virus mixed and adsorbed for 2 h, then added with cells (direct inactivation); for Protection rate (ER %), Group III: drug solution and virus solution added at the same time (direct inactivation); for Protection rate (ER %), Group II: virus added first, drug added 1 h after adsorption (treatment); for Protection rate (ER %), Group I: virus solution added after 24 h of drug administration (prevention)
[11] = tested on: COVID-19 Delta virus; assay: Prophylactic administration, virus titer in lung tissues of mice infected with COVID-19 Delta virus; conditions: prophylactic gavage 5 days before infection, Day 5 after infection, TCID50 on VERO E6 cells
[12] = tested on: parainfluenza virus; type: in vivo, Kunming mice; conditions: for Hemagglutination titer inhibition rate (%): Day 5; for Hemagglutination titer: lung suspension, Day 5, […]
[13] = tested on: COVID-19 Delta virus; assay: Prophylactic administration, death protection of mice infected with COVID-19 Delta virus; conditions: for Death rate / Survival rate / Mean survival: within 5 days of Delta infection, n = 8; for Mean survival: x ± s
Method: hACE2 transgenic C57BL/6 mice were divided (8 mice in each group) into a normal group (NC), a virus infection group (Virus), and drug groups (a COVID-19 Delta virus low-dose (40 mg/kg) group, high-dose (80 mg/kg) group; and a positive control group (Remdesivir 50 mg/kg). Before nasal dripping infection, the drug was administered by gavage 5 days in advance, once a day. After 5 days of continuous gavage, nasal dripping infection was performed, and mice in each COVID-19 virus infection group were infected with COVID-19 Delta virus with 10′ PFU by nasal dripping, except for the normal group who were given PBS by nasal dripping.
After infection, the body weight change was recorded every day, the death of animals within 5 days of infection was recorded, and the mean survival days and mortality rate of 5 days were calculated.

[14] = tested on: influenza virus FM1; assay: Action links (Groups I-IV: prevention, treatment, direct inactivation), protection of cells against influenza virus; type: cell-based; conditions: for Protection rate (ER %), Group IV: drug and virus mixed and adsorbed for 2 h, then added with cells (direct inactivation); for Protection rate (ER %), Group III: drug solution and virus solution added at the same time (direct inactivation); for Protection rate (ER %), Group II: virus added first, drug added 1 h after adsorption (treatment); for Protection rate (ER %), Group I: virus solution added after 24 h of drug administration (prevention)
[15] = high-dose group 80 mg/kg gavage 5 days
[16] = low-dose group 40 mg/kg gavage 5 days
[17] = prophylactic administration, High dose
[18] = prophylactic administration, Low dose

| SMILES | IL-2 expression level ([5]; High-dose group (26.0 mg/kg)) | IL-2 expression level ([5]; Low-dose group (13.0 mg/kg)) | Expression level of IL-1β in lung homogenate (x ± s) [6, 15] | Expression level of IL-1β in lung homogenate (x ± s) [6, 16] | Expression level of MCP-1 in lung homogenate (x ± s) [7, 15] | Expression level of MCP-1 in lung homogenate (x ± s) [7, 16] | TNF-a expression level ([8]; High-dose group (26.0 mg/kg)) | TNF-a expression level ([8]; Low-dose group (13.0 mg/kg)) | Hemagglutination titer inhibition rate (%) ([9]; 13.0 mg/kg) | Protection rate (ER %), Group IV [10] [%] | Protection rate (ER %), Group III [10] [%] | Protection rate (ER %), Group II [10] [%] | Protection rate (ER %), Group I [10] [%] | Lung virus titer (x ± s, n = 8) ([11]; high dose 80 mg/kg) | Lung virus titer (x ± s, n = 8) ([11]; low dose 40 mg/kg) | Hemagglutination titer inhibition rate (%) ([12]; 13.0 mg/kg) | Hemagglutination titer ([12]; 13.0 mg/kg) | Death rate [13, 17] [%] | Survival rate [13, 17] [%] | Mean survival [13, 17] [days] | also measured |
| --- | --- | --- | --- | --- | --- | --- | --- | --- | --- | --- | --- | --- | --- | --- | --- | --- | --- | --- | --- | --- | --- |
| COc1ccc(C2OCC3C(c4ccc(OC)c(OC)c4)OCC23)cc1O (stereo not shown) [compound 3] | – | – | – | – | – | – | – | – | – | – | – | – | – | – | – | – | – | – | – | – | Effective rate, ER %, Influenza Virus [1]: 83.10%; Maximum non-toxic concentration (TC0) [2]: 0.012 g/L; Median toxic concentration (TC50) [2]: 310 µg/mL; Effective rate, ER %, Parainfluenza Virus [3]: 91.41%; COVID-19 virus IC50 [4]: 166.5 |
| COc1cc([C@H]2OC[C@H]3[C@@H]2CO[C@H]3c2ccc(OC)c(OC)c2)ccc1O [Serial No. 3, phillygenin] | 275.59 ± 31.88 | 306.70 ± 34.88 | 4.93 ± 16.18 | 9.98 ± 11.16 | 3.67 ± 10.22 | 6.71 ± 4.38 | 648.40 ± 27.19 | 713.48 ± 39.74 | 42.20 | 100.18 | 100.46 | 85.11 | 84.15 | 2.98 ± 0.73 | 3.47 ± 0.98 | 36.28 | 22.06 ± 0.310 | 12.50 | 87.50 | 4.88 ± 0.35 | Hemagglutination titer ([9]; 13.0 mg/kg, Day 5, […]): 20.50 ± 0.489; Death rate [13, 18]: 75.00%; Survival rate [13, 18]: 25.00%; Mean survival [13, 18]: 4.13 ± 0.64 days; Protection rate (ER %), Group IV [14]: 100.38%; Protection rate (ER %), Group III [14]: 100.86%; Protection rate (ER %), Group II [14]: 75.51%; Protection rate (ER %), Group I [14]: 75.46% |
| CCC(CC)COC(=O)[C@H](C)N[P@](=O)(OC[C@H]1O[C@@](C#N)(c2ccc3c(N)ncnn23)[C@H](O)[C@@H]1O)Oc1ccccc1 [Remdesivir, reference compound] | – | – | – | – | – | – | – | – | – | – | – | – | – | – | – | – | – | – | – | – | Expression level of IL-1β in lung homogenate (x ± s) ([6]; 50 mg/kg, 5 days): 9.52 ± 6.37; Expression level of MCP-1 in lung homogenate (x ± s) ([7]; 50 mg/kg, 5 days): 6.88 ± 5.73; Lung virus titer (x ± s, n = 8) ([11]; 50 mg/kg): 3.69 ± 1.06; Death rate ([13]; 50 mg/kg): 75.00%; Survival rate ([13]; 50 mg/kg): 25.00%; Mean survival ([13]; 50 mg/kg): 3.88 ± 0.83 days; Death protection rate ([13]; prophylactic administration, 50 mg/kg, within 5 days of infection): 75% |
| COc1ccc([C@H]2OC[C@H]3[C@@H]2CO[C@H]3c2ccc(O[C@@H]3O[C@H](CO)[C@@H](O)[C@H](O)[C@H]3O)c(OC)c2)cc1OC [Serial No. 2, phillyrin] | 262.88 ± 35.66 | 293.00 ± 21.88 | 5.11 ± 14.34 | 10.58 ± 10.22 | 3.66 ± 11.30 | 7.42 ± 12.66 | 618.38 ± 28.86 | 683.47 ± 37.37 | 43.30 | 100.93 | 100.67 | 85.94 | 84.48 | 2.95 ± 0.57 | 3.70 ± 0.25 | 37.52 | 21.63 ± 0.330 | 12.50 | 87.50 | 4.88 ± 0.35 | Hemagglutination titer ([9]; 13.0 mg/kg, Day 5, […]): 20.11 ± 0.351; Death rate [13, 18]: 75.00%; Survival rate [13, 18]: 25.00%; Mean survival [13, 18]: 3.88 ± 0.83 days; Protection rate (ER %), Group IV [14]: 100.86%; Protection rate (ER %), Group III [14]: 100.68%; Protection rate (ER %), Group II [14]: 75.58%; Protection rate (ER %), Group I [14]: 75.86% |
| COc1cc(O)cc(C2OCC3C(c4ccc(OC5OC(CO)C(O)C(O)C5O)c(OC)c4)OCC23)c1 [Serial No. 1, (7,8,7′,8′)-7,7′-bisepoxy-5′-hydroxy-3,3′hydroxy-bismethoxylignan, 4-O-β-D-glucoside] | 259.04 ± 39.98 | 288.64 ± 25.05 | 4.80 ± 18.82 | 9.13 ± 8.66 | 3.26 ± 9.77 | 6.13 ± 15.12 | 608.95 ± 34.92 | 673.65 ± 26.44 | 43.39 | 100.82 | 100.49 | 85.95 | 84.39 | 2.93 ± 0.34 | 3.36 ± 0.28 | 37.46 | 21.65 ± 0.238 | 12.50 | 87.50 | 4.88 ± 0.35 | Hemagglutination titer ([9]; 13.0 mg/kg, Day 5, titer (InX)): 20.08 ± 0.381; Death rate [13, 18]: 75.00%; Survival rate [13, 18]: 25.00%; Mean survival [13, 18]: 4.25 ± 0.46 days; Protection rate (ER %), Group IV [14]: 100.76%; Protection rate (ER %), Group III [14]: 100.52%; Protection rate (ER %), Group II [14]: 75.77%; Protection rate (ER %), Group I [14]: 75.49% |
| CCOC(=O)C1=C[C@@H](OC(CC)CC)[C@H](NC(C)=O)[C@@H](N)C1 [Oseltamivir phosphate, reference compound] | – | – | – | – | – | – | – | – | – | – | – | – | – | – | – | – | – | – | – | – | Effective rate, ER %, Influenza Virus ([1]; Vero cells, 100TCID50, drug at experimental concentration of Table 3-2 (about maximum non-toxic), 72 h, MTT): 81.92%; IL-2 expression level ([5]; 19.5 mg/kg): 279.83 ± 23.26; TNF-a expression level ([8]; 19.5 mg/kg): 658.91 ± 38.33; Maximum non-toxic concentration (TC0) [2]: 0.29 g/L; Median toxic concentration (TC50) [2]: 831 µg/mL; Effective rate, ER %, Parainfluenza Virus [3]: 91.16%; Hemagglutination titer inhibition rate (%) ([9]; 19.5 mg/kg): 37.78%; Hemagglutination titer ([9]; 19.5 mg/kg, Day 5, titer (InX)): 22.07 ± 0.235; Hemagglutination titer inhibition rate (%) ([12]; 19.5 mg/kg): 32.93%; Hemagglutination titer ([12]; 19.5 mg/kg): 23.22 ± 0.648 |
